Reference: article PMC6017477, “In Vitro ADME Properties of Two Novel Antimicrobial Peptoid-Based Compounds as Potential Agents against Canine Pyoderma” (Molecules : A Journal of Synthetic Chemistry and Natural …, 2018)
Non-standard residues stand in square brackets, D forms with d. Residues, ends and D or L forms follow the SMILES beside them. N(1-naphthylmethyl)Gly = O=C(O)CNCc1cccc2ccccc12; N(4-MeBn)Gly = Cc1ccc(CNCC(=O)O)cc1; NBuGly = CCCCNCC(=O)O; Nlys = NCCCCNCC(=O)O

Assays:
in vitro = conditions: liver microsomes
Source text: Liver microsomal assay is used to determine hepatic intrinsic clearance of a drug and identification and profile of metabolites across species. Evaluation of microsomal stability of compounds in different species is common procedure in the drug discovery process to evaluate different metabolites in case of instability.
Dog and human microsomes were obtained from XenoTech LLC (Kansas City, KS, USA) and reconstituted in buffer containing D-(L)-isocitrate trisodium salt and 10 U/mL isocitrate dehydrogenase type IV glycerol solution (procine). […] The reaction was initiated by adding NADPH and substrate to reconstituted microsomes. A final concentration of 1 µM substrate was incubated with 0.5 mg/mL microsomes in the presence of 1 mM NADP^+ in 100 mM PBS with 1 mM MgCl2. Samples were collected at 0, 5, 10, 20, 30, and 60 min. The reaction was conducted at 37 °C before termination by addition of ACN, and analysis was conducted by LC-MS/MS (similar to the method described above). Controls with no drug and with no microsome regeneration system (buffer only) were included. All samples were prepared in triplicate. The rate of degradation by metabolism was measured on the basis of the difference of substrate concentration remaining at every time point. Metabolic half-lives were calculated as mentioned above.

[1] = UV-UPLC detection limit 1 µg/L
Procedure: The experiment was repeated twice.
The experiment was conducted in duplicate.

human red blood cells = assay type: cell-based; conditions: 37 °C, 1 h
Procedure: EC10 and EC50 values represent concentrations that result in 10 and 50% hemolysis, respectively. […] Briefly, two-fold serial dilutions (1 to 256 μg/mL) were incubated in PBS with a suspension of freshly withdrawn human red blood cells in PBS in 96-well v-shaped microtiter plates at 37 °C for 1 h covered with Microseal foil to avoid evaporation, and transferred to 96-well flat bottomed microtiter plates. The release of hemoglobin was detected by measuring the absorbance at 414 nm by a UV spectrophotometer (VERSAmax™ Tunable Microplate Reader, Molecular Devices, San José, CA, USA). PBS and melittin were used as negative and positive controls, respectively. All human blood samples were obtained after informed consent of the voluntary donors upon understanding of the research purposes, within local hospitals and according to local guidelines.

[2] = Day 0 versus Day 1, UV-UPLC
Procedure: 5-60% ACN in 2 minutes, 0.1% Formic Acid
(Waters Acquity UV-UPLC, C18 column, 2.1x54 mm, T=60°C, equilibration time= 0.1 min)
Table S4 Final gradient elution UV-UPLC method used for the LC-MS/MS experiments. %A and %B indicate the
percentage of the mobile phases mixed at the given time. […]

pronase = conditions: 37 °C, RP-HPLC peak areas
[3] = In vitro drug release from formulations, Franz cell with cellulose membrane; assay type: physicochemical
Procedure: Release was evaluated as function of the amount of peptide diffused through a cellulose membrane in the receptor of a Franz cell and detected via RP-HPLC from 0 to 8 h.
An oil-in-water cream and an ointment were prepared as described by Danish Health and Medicines Authority. For the oil-in-water cream, ingredients of the oil phase (Table 3) were melted on a water bath at 70 °C and mixed with the water phase, which was previously brought to boil and cooled down to 65–70 °C. The mixture was stirred until cooled. The ointment formulation was prepared by mixing melted Vaseline (80%) with paraffin oil (20%) on a water bath and allowed to cool under stirring. The cold method was used for preparation of the 20% (w/w) poloxamer gel, where the poloxamer powder was dissolved in purified water at 4 °C and subsequently left overnight at 2–8 °C to stabilize. All formulations were stored at 4 °C for maximum seven days before use. […] For the hydrogel, the compounds dissolved in water were mixed with the cold poloxamer solution before gelling at room temperature.
Approximately 200 µL of each formulation was filled into the donor chambers of the Franz cells via a 1 mL syringe ensuring contact with the cellulose membrane separating the donor compartment from the receptor compartment. The donor compartment was maintained at room temperature (25 ± 1 °C) and the membrane diffusion area was 1.57 cm^2. […] The receptor medium (3 mL PBS, pH 7.4) was stirred using magnetic stirring and thermo-regulated to 36 °C by a water jacket. Samples (200 μL) were collected from the receptor compartment through the sampling port over 8 h, and the withdrawn volume was replaced with an equal volume of buffer at every time point. The samples were analyzed by a Waters 600E RP-HPLC equipped with Empower 3 software (Waters Corporation, Milford, MA, USA): 30 min run time with 20 min linear gradient from 0.1% (v/v) TFA in water to 30% (v/v) ACN:H2O with 0.1% (v/v) TFA (90:10). […] Experiments were performed in duplicate.

SMILES	half-life at 1 µM (in vitro; dog) [h]	half-life at 1 µM (in vitro; human) [h]	remaining at 1 h, 1 µM (in vitro) [%]	skin penetration from 50% transcutol formulation after 24 h [1]	EC50, concentration resulting in 50% hemolysis of erythrocytes (human red blood cells) [µg/mL]	stability in 50% transcutol in acetate buffer pH 5 [2]	degradation after 24 h incubation with pronase (pronase)	half-life (in vitro; dog) [h]	half-life (in vitro; human) [h]	release from 20% poloxamer gel after eight hours ([3]; 20% poloxamer gel, 8 h)	release kinetics from oil-in-water cream ([3]; oil-in-water cream)	release from ointment after eight hours ([3]; ointment, 8 h)
CCCCN(CC(=O)N[C@@H](CCCCN)C(=O)N(CC(=O)N(CC(=O)N(CC(N)=O)Cc1cccc2ccccc12)Cc1ccc(C)cc1)Cc1cccc2ccccc12)C(=O)[C@H](CCCCN)NC(=O)[C@@H](N)CCCCN [Compound B1] (H-KK[NBuGly]K[N(1-naphthylmethyl)Gly][N(4-MeBn)Gly][N(1-naphthylmethyl)Gly]-NH2)	> 2	> 2	100	No penetration	219	stable	–	–	–	–	–	–
CCCCN(CC(N)=O)C(=O)CN(CCCCN)C(=O)CN(Cc1cccc2ccccc12)C(=O)CN(CCCCN)C(=O)CN(Cc1ccc(C)cc1)C(=O)CN(Cc1cccc2ccccc12)C(=O)CN(CCCCN)C(=O)CNCCCCN [Compound D2] (H-[Nlys][Nlys][N(1-naphthylmethyl)Gly][N(4-MeBn)Gly][Nlys][N(1-naphthylmethyl)Gly][Nlys][NBuGly]-NH2)	–	–	77	–	–	–	shows stability	> 2	> 2	no detectable release	zero-order kinetics	no detectable release
